Results as given in paper PMC6120666 (The EMBO Journal, 2018).

What was measured:
Test in all cases: Drug affinity chromatography with c-ponatinib and LC-MS/MS (ponatinib interactome)
Assay type in all cases: binding
[1] = target: T1, proteins of U2OS cell lysate (Homo sapiens, UniProt Q99460)
T1 construct: Proteins enriched by c-ponatinib from U2OS cell lysate; endogenous in cells; host or cells: U2OS cell lysate
Procedure: (§1) Drug affinity chromatography
(§2) U2OS cells were grown until approximately 80% confluent before being pelleted and washed with PBS. Cell pellets were subsequently lysed in buffer A (50 mM Tris pH 7.5, 0.8% v/v NP-40, 5% v/v glycerol, 1.5 mM MgCl2, 100 mM NaCl, 25 mM NaF, 1 mM Na3VO4, 1 mM PMSF, 1mM DTT, 10 μg/mL TLCK, 1 μg/ml Leupeptin, 1 μg/ml Aprotinin, 1 μg/ml soy bean trypsin) and lysates prepared […]
(§3) concentration was determined and lysates stored at -80 °C.
(§4) Briefly, 100 μl of bead slurry (50% in isopropanol) were used for each pulldown experiment. Beads were washed with DMSO (3 × 500 μl), and resuspended in DMSO (50 μl), to which the amine (0.025 μmol) and triethylamine (0.75 μl) were added. The beads were incubated at room temperature for 16 h, and depletion of free amine from the supernatant was determined by LC-MS analysis. Ethanolamine (2.5 μl) was then added to block any unreacted NHS sites, and the beads incubated for a further 16 h. Derivatized beads were then washed with DMSO (3 × 500 μl), buffer A (3 × 1 ml), and incubated with cell lysates (2 mg of protein per pulldown, at 6 […]
(§5) Beads and treated lysates were incubated for 2 h at 4 °C before washing with buffer A (5 ml), Buffer B (50 mM HEPES pH 7.5, 100 mM NaCl, 500 μM EDTA, 2.5 ml), and eluted with formic acid (100 mM, 250 μl). Samples were neutralized with triethylammoniumbicarbonate (TEAB, 1M, 62.5 μl) and stored at -20 °C until preparation for proteomic analysis.
(§6) Samples were reduced with DTT (10 mM final concentration) for 30 min at room temperature, alkylated with iodoacetamide (55 mM final concentration) for 30 min at room temperature, diluted to 300 μl with TEAB, and incubated with trypsin (6 μl, 0.2 mg/ml) overnight at 37 °C. The digests were desalted using SEPAC lite columns (Waters), eluted with 69 % v/v MeCN, 0.1 % v/v FA in H2O (1 ml) and dried in vacuo. Dried peptides were stored at -20 °C before resuspension in 2 % v/v MeCN, 1 % v/v FA in H2O (20 μl) for LC-MS/MS analysis.
(§7) LC-MS/MS data acquisition
(§8) Mass spectrometry data was acquired at the Discovery Proteomics Facility (University of Oxford).
(§9) Digested samples were analyzed by nano-UPLC–MS/MS using a Dionex Ultimate 3000 nano UPLC with EASY spray column (75 μm × 500 mm, 2 μm particle size, Thermo Fisher Scientific) with a 60 min gradient of 0.1 % (v/v) formic acid in 5 % (v/v) DMSO to 0.1 % (v/v) formic acid with 35 % (v/v) acetonitrile in 5 % (v/v) DMSO at a flow rate of approximately 250 nl min−1 (600 bar per 40 °C column temperature). Mass spectrometry data was acquired either with an Orbitrap Q Exactive (Survey scans acquired at a resolution of 70,000 @ 200m/z and the 15 most abundant precursors were selected for HCD fragmentation), or an Orbitrap Q Exactive High Field (HF) instrument (survey scans were […]

[2] = target: T2, proteins of U2OS cell lysate (Homo sapiens, UniProt P04406)
T2 construct: Proteins enriched by c-ponatinib from U2OS cell lysate; endogenous in cells; host or cells: U2OS cell lysate
Procedure: as §1, §2, §3, §4, §5, §6, §7, §8, §9

[3] = target: T3, proteins of U2OS cell lysate (Homo sapiens, UniProt O43175)
T3 construct: Proteins enriched by c-ponatinib from U2OS cell lysate; endogenous in cells; host or cells: U2OS cell lysate
T3 sequence (O43175 whole entry): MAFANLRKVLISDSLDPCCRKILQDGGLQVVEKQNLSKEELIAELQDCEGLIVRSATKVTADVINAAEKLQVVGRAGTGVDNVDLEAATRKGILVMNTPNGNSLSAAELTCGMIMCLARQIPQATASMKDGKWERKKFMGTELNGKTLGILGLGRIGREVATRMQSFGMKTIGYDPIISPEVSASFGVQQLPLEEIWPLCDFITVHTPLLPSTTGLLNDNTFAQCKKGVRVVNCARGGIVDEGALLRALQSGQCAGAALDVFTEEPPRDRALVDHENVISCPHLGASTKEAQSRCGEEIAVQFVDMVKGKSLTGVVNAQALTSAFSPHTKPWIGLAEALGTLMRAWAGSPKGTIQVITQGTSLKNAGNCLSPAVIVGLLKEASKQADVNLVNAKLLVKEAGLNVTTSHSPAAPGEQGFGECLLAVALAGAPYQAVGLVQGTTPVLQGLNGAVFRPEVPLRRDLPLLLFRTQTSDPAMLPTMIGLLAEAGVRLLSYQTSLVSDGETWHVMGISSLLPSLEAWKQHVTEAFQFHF
Procedure: as §1, §2, §3, §4, §5, §6, §7, §8, §9

[4] = target: T4, proteins of U2OS cell lysate (Homo sapiens, UniProt Q92598)
T4 construct: Proteins enriched by c-ponatinib from U2OS cell lysate; endogenous in cells; host or cells: U2OS cell lysate
T4 sequence (Q92598 whole entry): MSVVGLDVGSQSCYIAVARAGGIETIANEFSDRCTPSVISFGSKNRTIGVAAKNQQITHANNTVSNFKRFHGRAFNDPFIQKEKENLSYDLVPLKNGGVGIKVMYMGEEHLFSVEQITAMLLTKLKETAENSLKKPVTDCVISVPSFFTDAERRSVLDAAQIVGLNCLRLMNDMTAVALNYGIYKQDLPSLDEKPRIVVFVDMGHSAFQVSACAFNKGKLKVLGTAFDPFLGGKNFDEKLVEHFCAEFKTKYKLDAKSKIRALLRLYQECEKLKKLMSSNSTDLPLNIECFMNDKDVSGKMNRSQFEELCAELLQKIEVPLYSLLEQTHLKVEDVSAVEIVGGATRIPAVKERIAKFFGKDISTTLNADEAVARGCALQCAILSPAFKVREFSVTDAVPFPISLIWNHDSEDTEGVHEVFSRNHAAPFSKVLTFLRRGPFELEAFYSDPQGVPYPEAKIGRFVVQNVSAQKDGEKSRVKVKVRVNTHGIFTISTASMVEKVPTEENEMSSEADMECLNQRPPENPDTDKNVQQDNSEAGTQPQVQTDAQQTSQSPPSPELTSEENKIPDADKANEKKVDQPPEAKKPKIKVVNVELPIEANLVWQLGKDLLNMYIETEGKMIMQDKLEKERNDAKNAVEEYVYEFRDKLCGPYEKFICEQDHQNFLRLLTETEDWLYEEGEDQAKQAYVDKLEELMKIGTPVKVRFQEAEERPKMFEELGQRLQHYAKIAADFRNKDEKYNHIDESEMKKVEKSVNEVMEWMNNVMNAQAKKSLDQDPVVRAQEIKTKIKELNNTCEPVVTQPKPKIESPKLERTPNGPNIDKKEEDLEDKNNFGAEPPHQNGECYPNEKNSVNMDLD
Procedure: as §1, §2, §3, §4, §5, §6, §7, §8, §9

[5] = target: T5, proteins of U2OS cell lysate (Homo sapiens, UniProt Q99832)
T5 construct: Proteins enriched by c-ponatinib from U2OS cell lysate; endogenous in cells; host or cells: U2OS cell lysate
T5 sequence (Q99832 whole entry): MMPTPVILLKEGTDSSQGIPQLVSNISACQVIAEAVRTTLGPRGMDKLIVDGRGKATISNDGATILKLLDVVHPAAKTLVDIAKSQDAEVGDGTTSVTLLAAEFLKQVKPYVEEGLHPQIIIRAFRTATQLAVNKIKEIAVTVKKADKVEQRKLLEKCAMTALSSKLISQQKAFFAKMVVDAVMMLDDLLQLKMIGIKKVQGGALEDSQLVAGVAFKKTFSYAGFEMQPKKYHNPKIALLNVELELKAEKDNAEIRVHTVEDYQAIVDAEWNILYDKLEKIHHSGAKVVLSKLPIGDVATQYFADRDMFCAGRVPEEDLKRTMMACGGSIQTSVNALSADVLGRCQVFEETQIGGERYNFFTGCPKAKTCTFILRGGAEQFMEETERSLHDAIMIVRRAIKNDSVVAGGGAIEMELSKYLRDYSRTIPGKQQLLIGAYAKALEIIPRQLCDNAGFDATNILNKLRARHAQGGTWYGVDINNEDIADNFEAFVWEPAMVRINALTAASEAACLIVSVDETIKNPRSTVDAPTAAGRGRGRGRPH
Procedure: as §1, §2, §3, §4, §5, §6, §7, §8, §9

[6] = target: T6, proteins of U2OS cell lysate (Homo sapiens, UniProt P13073)
T6 construct: Proteins enriched by c-ponatinib from U2OS cell lysate; endogenous in cells; host or cells: U2OS cell lysate
Procedure: as §1, §2, §3, §4, §5, §6, §7, §8, §9

[7] = target: T7, proteins of U2OS cell lysate (Homo sapiens, UniProt Q15428)
T7 construct: Proteins enriched by c-ponatinib from U2OS cell lysate; endogenous in cells; host or cells: U2OS cell lysate
Procedure: as §1, §2, §3, §4, §5, §6, §7, §8, §9

[8] = target: T8, proteins of U2OS cell lysate (Homo sapiens, UniProt P49006)
T8 construct: Proteins enriched by c-ponatinib from U2OS cell lysate; endogenous in cells; host or cells: U2OS cell lysate
T8 sequence (P49006 whole entry): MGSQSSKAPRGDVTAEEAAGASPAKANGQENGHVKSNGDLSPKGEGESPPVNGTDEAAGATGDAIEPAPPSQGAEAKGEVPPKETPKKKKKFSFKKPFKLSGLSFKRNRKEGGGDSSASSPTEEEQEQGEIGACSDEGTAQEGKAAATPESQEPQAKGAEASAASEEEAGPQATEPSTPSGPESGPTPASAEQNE
Procedure: as §1, §2, §3, §4, §5, §6, §7, §8, §9

[9] = target: T9, proteins of U2OS cell lysate (Homo sapiens, UniProt P63244)
T9 construct: Proteins enriched by c-ponatinib from U2OS cell lysate; endogenous in cells; host or cells: U2OS cell lysate
Procedure: as §1, §2, §3, §4, §5, §6, §7, §8, §9

[10] = target: T10, proteins of U2OS cell lysate (Homo sapiens, UniProt P28074)
T10 construct: Proteins enriched by c-ponatinib from U2OS cell lysate; endogenous in cells; host or cells: U2OS cell lysate
Procedure: as §1, §2, §3, §4, §5, §6, §7, §8, §9

[11] = target: T11, proteins of U2OS cell lysate (Homo sapiens, UniProt Q16643)
T11 construct: Proteins enriched by c-ponatinib from U2OS cell lysate; endogenous in cells; host or cells: U2OS cell lysate
Procedure: as §1, §2, §3, §4, §5, §6, §7, §8, §9

[12] = target: T12, proteins of U2OS cell lysate (Homo sapiens, UniProt O75947)
T12 construct: Proteins enriched by c-ponatinib from U2OS cell lysate; endogenous in cells; host or cells: U2OS cell lysate
Procedure: as §1, §2, §3, §4, §5, §6, §7, §8, §9

[13] = target: T13, proteins of U2OS cell lysate (Homo sapiens, UniProt P50613)
T13 construct: Proteins enriched by c-ponatinib from U2OS cell lysate; endogenous in cells; host or cells: U2OS cell lysate
T13 sequence (P50613 whole entry): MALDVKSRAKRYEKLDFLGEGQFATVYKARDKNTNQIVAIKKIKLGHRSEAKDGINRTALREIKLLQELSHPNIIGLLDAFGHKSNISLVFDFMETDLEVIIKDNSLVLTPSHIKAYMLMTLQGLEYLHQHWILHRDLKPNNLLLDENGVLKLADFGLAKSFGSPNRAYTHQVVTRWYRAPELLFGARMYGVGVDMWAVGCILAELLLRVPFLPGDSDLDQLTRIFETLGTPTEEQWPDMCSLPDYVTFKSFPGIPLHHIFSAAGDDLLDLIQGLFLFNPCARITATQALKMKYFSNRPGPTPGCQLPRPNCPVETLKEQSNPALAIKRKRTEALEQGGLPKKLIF
Procedure: as §1, §2, §3, §4, §5, §6, §7, §8, §9

[14] = target: T14, proteins of U2OS cell lysate (Homo sapiens, UniProt Q14697)
T14 construct: Proteins enriched by c-ponatinib from U2OS cell lysate; endogenous in cells; host or cells: U2OS cell lysate
Procedure: as §1, §2, §3, §4, §5, §6, §7, §8, §9

[15] = target: T15, proteins of U2OS cell lysate (Homo sapiens, UniProt P09619)
T15 construct: Proteins enriched by c-ponatinib from U2OS cell lysate; endogenous in cells; host or cells: U2OS cell lysate
T15 sequence (P09619 33-1106): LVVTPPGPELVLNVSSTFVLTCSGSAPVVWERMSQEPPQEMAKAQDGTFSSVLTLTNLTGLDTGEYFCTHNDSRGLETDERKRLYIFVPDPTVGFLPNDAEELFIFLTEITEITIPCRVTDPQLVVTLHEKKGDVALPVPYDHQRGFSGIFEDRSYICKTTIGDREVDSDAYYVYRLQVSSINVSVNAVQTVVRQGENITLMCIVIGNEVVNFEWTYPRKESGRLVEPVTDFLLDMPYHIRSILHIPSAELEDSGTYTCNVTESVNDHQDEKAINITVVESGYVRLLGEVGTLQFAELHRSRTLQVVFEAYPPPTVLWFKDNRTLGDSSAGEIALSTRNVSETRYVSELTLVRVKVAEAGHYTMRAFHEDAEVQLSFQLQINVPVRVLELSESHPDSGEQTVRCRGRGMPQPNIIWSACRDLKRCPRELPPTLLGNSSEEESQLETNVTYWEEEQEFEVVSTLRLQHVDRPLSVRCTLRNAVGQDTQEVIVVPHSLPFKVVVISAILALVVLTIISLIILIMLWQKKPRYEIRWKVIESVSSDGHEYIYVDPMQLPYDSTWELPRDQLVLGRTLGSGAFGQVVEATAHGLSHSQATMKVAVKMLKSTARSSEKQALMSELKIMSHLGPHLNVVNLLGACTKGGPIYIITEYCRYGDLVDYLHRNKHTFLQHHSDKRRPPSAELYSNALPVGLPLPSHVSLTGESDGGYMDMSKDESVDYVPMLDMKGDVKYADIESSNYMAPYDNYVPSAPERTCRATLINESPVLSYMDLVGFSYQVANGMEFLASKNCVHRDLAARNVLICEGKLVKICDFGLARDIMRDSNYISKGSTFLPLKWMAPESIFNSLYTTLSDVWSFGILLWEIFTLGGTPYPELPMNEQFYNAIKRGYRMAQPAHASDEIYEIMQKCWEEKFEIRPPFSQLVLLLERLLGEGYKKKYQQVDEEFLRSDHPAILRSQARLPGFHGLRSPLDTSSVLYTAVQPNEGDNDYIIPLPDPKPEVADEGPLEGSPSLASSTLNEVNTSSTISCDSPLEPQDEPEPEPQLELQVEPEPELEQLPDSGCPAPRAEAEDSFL
Procedure: as §1, §2, §3, §4, §5, §6, §7, §8, §9

[16] = target: T16, proteins of U2OS cell lysate (Homo sapiens, UniProt P24539)
T16 construct: Proteins enriched by c-ponatinib from U2OS cell lysate; endogenous in cells; host or cells: U2OS cell lysate
Procedure: as §1, §2, §3, §4, §5, §6, §7, §8, §9

[17] = target: T17, proteins of U2OS cell lysate (Homo sapiens, UniProt Q99613)
T17 construct: Proteins enriched by c-ponatinib from U2OS cell lysate; endogenous in cells; host or cells: U2OS cell lysate
Procedure: as §1, §2, §3, §4, §5, §6, §7, §8, §9

[18] = target: T18, proteins of U2OS cell lysate (Homo sapiens, UniProt Q9BWU1)
T18 construct: Proteins enriched by c-ponatinib from U2OS cell lysate; endogenous in cells; host or cells: U2OS cell lysate
T18 sequence (Q9BWU1 whole entry): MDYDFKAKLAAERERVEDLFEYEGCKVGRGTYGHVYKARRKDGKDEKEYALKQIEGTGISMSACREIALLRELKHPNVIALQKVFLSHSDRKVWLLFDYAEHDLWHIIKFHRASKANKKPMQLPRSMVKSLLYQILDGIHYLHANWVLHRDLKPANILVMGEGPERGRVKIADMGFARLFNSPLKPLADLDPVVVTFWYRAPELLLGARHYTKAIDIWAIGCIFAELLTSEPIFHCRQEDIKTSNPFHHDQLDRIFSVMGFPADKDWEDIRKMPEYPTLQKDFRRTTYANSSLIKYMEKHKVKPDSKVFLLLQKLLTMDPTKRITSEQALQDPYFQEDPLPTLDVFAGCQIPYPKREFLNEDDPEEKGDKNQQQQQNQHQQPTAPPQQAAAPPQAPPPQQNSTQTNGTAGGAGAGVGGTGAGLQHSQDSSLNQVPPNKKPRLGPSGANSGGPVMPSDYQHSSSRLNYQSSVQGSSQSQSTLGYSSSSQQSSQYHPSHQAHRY
Procedure: as §1, §2, §3, §4, §5, §6, §7, §8, §9

[19] = target: T19, proteins of U2OS cell lysate (Homo sapiens, UniProt P62805)
T19 construct: Proteins enriched by c-ponatinib from U2OS cell lysate; endogenous in cells; host or cells: U2OS cell lysate
Procedure: as §1, §2, §3, §4, §5, §6, §7, §8, §9

T1 sequence (Q99460 whole entry): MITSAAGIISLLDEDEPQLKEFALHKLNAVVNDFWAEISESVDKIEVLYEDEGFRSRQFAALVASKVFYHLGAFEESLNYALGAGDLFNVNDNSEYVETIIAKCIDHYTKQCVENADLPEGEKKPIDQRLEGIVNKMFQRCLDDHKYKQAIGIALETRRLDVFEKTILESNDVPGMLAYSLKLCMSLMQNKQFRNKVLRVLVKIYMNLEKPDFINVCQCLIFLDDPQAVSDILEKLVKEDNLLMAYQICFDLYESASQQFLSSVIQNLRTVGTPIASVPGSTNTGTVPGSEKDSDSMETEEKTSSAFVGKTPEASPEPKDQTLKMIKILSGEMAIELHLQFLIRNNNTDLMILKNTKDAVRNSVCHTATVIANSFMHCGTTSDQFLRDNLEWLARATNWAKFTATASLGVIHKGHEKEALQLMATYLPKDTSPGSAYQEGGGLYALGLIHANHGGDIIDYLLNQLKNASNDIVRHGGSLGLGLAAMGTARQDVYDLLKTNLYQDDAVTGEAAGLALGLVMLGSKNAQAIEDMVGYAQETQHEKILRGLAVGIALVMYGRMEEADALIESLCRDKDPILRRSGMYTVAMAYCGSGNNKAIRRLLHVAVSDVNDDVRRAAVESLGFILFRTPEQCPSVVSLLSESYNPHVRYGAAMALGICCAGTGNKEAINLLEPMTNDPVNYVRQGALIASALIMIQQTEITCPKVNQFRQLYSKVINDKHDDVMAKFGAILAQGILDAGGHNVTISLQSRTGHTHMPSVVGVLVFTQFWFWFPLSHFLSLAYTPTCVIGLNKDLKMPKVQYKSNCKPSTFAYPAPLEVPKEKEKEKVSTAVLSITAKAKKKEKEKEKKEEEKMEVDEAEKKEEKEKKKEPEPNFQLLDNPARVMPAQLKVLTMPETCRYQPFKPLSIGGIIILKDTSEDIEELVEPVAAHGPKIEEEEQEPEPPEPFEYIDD

With `Cc1ccc(C(=O)Nc2ccc(CN3CCN(C)CC3)c(C(F)(F)F)c2)cc1C#Cc1cnc2cccnn12` [PON] the “Average LFQ PON_WT” value ([1]; PSMD1, 26S proteasome non-ATPase regulatory subunit 1) was 21.8552, the “Average LFQ PON_WT” value ([2]; GAPDH, Glyceraldehyde-3-phosphate dehydrogenase) was 22.9925 and the “Average LFQ PON_WT” value ([3]; PHGDH, D-3-phosphoglycerate dehydrogenase) was 23.086. For the same compound, the “Average LFQ PON_WT” value ([4]; HSPH1, Heat shock protein 105 kDa) was 22.355, the “Average LFQ PON_WT” value ([5]; CCT7, T-complex protein 1 subunit eta) was 22.9495 and the “Average LFQ PON_WT” value ([6]; COX4I1, Cytochrome c oxidase subunit 4 isoform 1, mitochondrial) was 21.5292. The “Average LFQ PON_WT” value ([7]; SF3A2, Splicing factor 3A subunit 2) was 22.8464, the “Average LFQ PON_WT” value ([8]; MARCKSL1, MARCKS-related protein) was 21.5548 and the “Average LFQ PON_WT” value ([9]; GNB2L1, Guanine nucleotide-binding protein subunit beta-2-like 1) was 22.5999. For the same compound, the “Average LFQ PON_WT” value ([10]; PSMB5, Proteasome subunit beta type-5) was 21.73, the “Average LFQ PON_WT” value ([11]; DBN1, Drebrin) was 22.4964 and the “Average LFQ PON_WT” value ([12]; ATP5H, ATP synthase subunit d, mitochondrial) was 23.183. For the same compound, the “Average LFQ PON_WT” value ([13]; CDK7, Cyclin-dependent kinase 7) was 22.0619, the “Average LFQ PON_WT” value ([14]; GANAB, Neutral alpha-glucosidase AB) was 22.2601 and the “Average LFQ PON_WT” value ([15]; PDGFRB, Platelet-derived growth factor receptor beta) was 22.3008. For the same compound, the “Average LFQ PON_WT” value ([16]; ATP5F1, ATP synthase subunit b, mitochondrial) was 22.7408, the “Average LFQ PON_WT” value ([17]; EIF3C;EIF3CL, Eukaryotic translation initiation factor 3 subunit C) was 21.9967 and the “Average LFQ PON_WT” value ([18]; CDK19, Cyclin-dependent kinase 19) was 21.5435. For the same compound, the “Average LFQ PON_WT” value ([19]; HIST1H4A, Histone H4) was 22.1811.
With `Cc1ccc(C(=O)Nc2ccc(CN3CCN(CCCN)CC3)c(C(F)(F)F)c2)cc1C#Cc1cnc2cccnn12` [c-ponatinib, reference compound] the “Average LFQ intensity” value ([1]; captured protein PSMD1, Rank 199) was 21.8552, the “Average LFQ intensity” value ([2]; captured protein GAPDH, Rank 124) was 22.9925 and the “Average LFQ intensity” value ([3]; captured protein PHGDH, Rank 119) was 23.086. The “Average LFQ intensity” value ([4]; captured protein HSPH1, Rank 164) was 22.3551, the “Average LFQ intensity” value ([5]; captured protein CCT7, Rank 127) was 22.9495 and the “Average LFQ intensity” value ([6]; captured protein COX4I1, Rank 227) was 21.5292. The “Average LFQ intensity” value ([7]; captured protein SF3A2, Rank 134) was 22.8464, the “Average LFQ intensity” value ([8]; captured protein MARCKSL1, Rank 225) was 21.5548 and the “Average LFQ intensity” value ([9]; captured protein GNB2L1, Rank 153) was 22.5999. The “Average LFQ intensity” value ([10]; captured protein PSMB5, Rank 211) was 21.7301, the “Average LFQ intensity” value ([11]; captured protein DBN1, Rank 158) was 22.4964 and the “Average LFQ intensity” value ([12]; captured protein ATP5H, Rank 115) was 23.183. The “Average LFQ intensity” value ([13]; captured protein CDK7, Rank 187) was 22.0619, the “Average LFQ intensity” value ([14]; captured protein GANAB, Rank 172) was 22.2601 and the “Average LFQ intensity” value ([15]; captured protein PDGFRB, Rank 168) was 22.3008. For the same compound, the “Average LFQ intensity” value ([16]; captured protein ATP5F1, Rank 144) was 22.7408, the “Average LFQ intensity” value ([17]; captured protein EIF3C;EIF3CL, Rank 191) was 21.9967 and the “Average LFQ intensity” value ([18]; captured protein CDK19, Rank 226) was 21.5435. The “Average LFQ intensity” value ([19]; captured protein HIST1H4A, Rank 180) was 22.1811.
